Experimental data as given in patent US12576061B2, “Agent for inducing regression of triglyceride deposit atherosclerosis” (OSAKA UNIVERSITY, priority 2020, dated 2026).
Entries after “also recorded” stand apart in the source; their conditions may differ.

Columns and labels:
[1] = test system: dermal fibroblasts derived from a diabetic patient; assay: Intracellular triglyceride content of dermal fibroblasts cultured with fatty acids; type: cell-based, human; settings: 2 days of culture; for potency for reducing triglyceride compared with other fatty acid: Example 4-2, 125 μM and 500 μM, FIG. 7
Text: A portion of skin tissue was sampled from a diabetic patient after the patient's consent. This sample skin tissue was subjected to primary culture (culture medium: DMEM/10% FBS) by a tissue fragment culture method (Explant method) and subsequent successive passages, and then developed into a cell line. The dermal fibroblasts derived from the patient were used to examine the effect of various fatty acids on intracellular triglyceride content. The intracellular triglyceride content of the dermal fibroblasts derived from the diabetic patient was about 5 times higher than the average intracellular triglyceride content of dermal fibroblasts derived from three healthy subjects. The long-chain fatty acids used were palmitic acid (C16:0), oleic acid (C18:1), linoleic acid ([…]), arachidonic acid (C20:4), and […] (C20:5). The medium-chain fatty acids used were heptanoic acid (C7:0) and capric acid (C10:0). These different fatty acids were separately added at 50 μM and 500 μM to the media of dermal fibroblasts from the diabetic patient described above. After 2 days of culture, the cells were collected, and the intracellular triglyceride content was measured using a triglyceride quantification kit (BioVision). The medium-chain fatty acids used were capric acid (C10:0), caprylic acid (C8:0), and 8-methylnonanoic acid ([…]). These different fatty acids were separately added at 125 μM and 500 μM to the media of dermal fibroblasts from the diabetic patient described above. After 2 days of culture, the cells were collected, and the intracellular triglyceride content was measured using a triglyceride quantification kit (BioVision). For controls, 500 μM palmitic acid (C16:0) or no fatty acid was added to the medium of the same dermal fibroblasts as those used above.

[2] = test system: TG deposit atherosclerosis in the coronary artery; assay: Coronary CT angiography, color-coded images of lipid accumulation in the coronary artery; type: in vivo, human
Procedure: Before and 50 days after the start of the tricaprin/trisdecanoin diet, a standard coronary CT angiography was performed to generate three-dimensional (3D) DICOM images of the left anterior descending coronary artery. The images were resampled to a voxel size of 0.1 mm^3 and color-coded according to CT values of individual voxels. Smoothing was applied between adjacent voxels. Colors were coded as follows: light gray (yellow in the color image): −25 HU to 0 HU (massive lipid accumulation); medium gray (orange in the color image): 0 HU to 40 HU (moderate lipid accumulation); dark gray (green in the color image): 40 HU to 125 HU (no lipid accumulation).
(§1) Before and 4 years after the start of the tricaprin/trisdecanoin diet, a standard coronary CT angiography was performed, and the images of the inside of the left anterior descending coronary artery were color-coded in the same manner as described in Example 1. The images of the designated segment of the coronary artery were analyzed with a 3D image analysis system SYNAPSE VINCENT v5.5 (FUJIFILM Corporation) to examine changes in lipid accumulation and vascular lumen size in the designated segment. In the image analysis, the area with CT values ranging −25 to 40 HU was regarded as lipid accumulation, and the area with CT values ranging 215 to 700 HU was regarded as the vascular lumen.
(§2) Angiograms of the coronary artery were taken before and 3 months after the start of the tricaprin/trisdecanoin diet. A standard coronary CT angiography was also performed, and the images were color-coded in the same manner as described in Example 1. The images of the designated segment of the coronary artery were subjected to 3D image analysis in the same manner as described in Example 2 to examine changes in lipid accumulation and vascular lumen size in the designated segment.

[3] = test system: TG deposit atherosclerosis in the coronary artery; assay: 3D image analysis (SYNAPSE VINCENT) of lipid accumulation and vascular lumen size in designated coronary segment; type: in vivo, human
Procedure: as §1, §2

[4] = test system: coronary arteries of patient with idiopathic TGCV; assay: Angiograms of the coronary artery, blood flow; type: in vivo, human; settings: Example 3 patient, refractory angina
Procedure: as §2

[5] = Serum lipid levels before and after the start of the tricaprin/trisdecanoin diet; type: in vivo, human; settings: for LDL cholesterol, serum / HDL cholesterol, serum / TG (triglyceride), serum: After treatment
Procedure: (§3) The mean values of the triglyceride, LDL cholesterol, and HDL cholesterol levels measured before the start of the tricaprin/trisdecanoin diet were compared to those measured for 4 years after the start of the tricaprin/trisdecanoin diet. […] The LDL cholesterol level was under control within the normal range (60 to 119 mg/dL).
as §3, with “3 months” for “4 years”, “at a level lower than” for “within”

[6] = test system: recurrent cerebral infarction; assay: Clinical course of the patient during the tricaprin/trisdecanoin diet; type: in vivo, human; settings: Example 2 patient with history of cerebral infarction; 1.5 g/day for 4 years
Text: A person who had suffered from refractory angina for years. The patient had diabetes with a history of middle cerebral artery occlusion and cerebral infarction. The patient presented to hospital with a chief complaint of rest and nocturnal angina. […] Their chest pain was refractory to existing medications (sublingual nitroglycerin, calcium channel blockers, β-blockers, antiplatelet agents, and statins) and rather worsened. […] The patient received tricaprin/trisdecanoin three times per day after meals in a total daily dose of 1.5 g for 4 years.

[7] = target: T1, PCSK9 (Homo sapiens, UniProt Q8NBP7); settings: evolocumab group (484 patients) on statin treatment, cited from earlier work
T1 construct: randomly assigned to receive evolocumab (monoclonal antibody against PCSK9); host or cells: patients (in vivo, endogenous circulating PCSK9)

[8] = Example 2 patient, 1.5 g/day for 4 years
[9] = Example 3 patient, 4.5 g/day for 3 months

T1 sequence (Q8NBP7 153-692): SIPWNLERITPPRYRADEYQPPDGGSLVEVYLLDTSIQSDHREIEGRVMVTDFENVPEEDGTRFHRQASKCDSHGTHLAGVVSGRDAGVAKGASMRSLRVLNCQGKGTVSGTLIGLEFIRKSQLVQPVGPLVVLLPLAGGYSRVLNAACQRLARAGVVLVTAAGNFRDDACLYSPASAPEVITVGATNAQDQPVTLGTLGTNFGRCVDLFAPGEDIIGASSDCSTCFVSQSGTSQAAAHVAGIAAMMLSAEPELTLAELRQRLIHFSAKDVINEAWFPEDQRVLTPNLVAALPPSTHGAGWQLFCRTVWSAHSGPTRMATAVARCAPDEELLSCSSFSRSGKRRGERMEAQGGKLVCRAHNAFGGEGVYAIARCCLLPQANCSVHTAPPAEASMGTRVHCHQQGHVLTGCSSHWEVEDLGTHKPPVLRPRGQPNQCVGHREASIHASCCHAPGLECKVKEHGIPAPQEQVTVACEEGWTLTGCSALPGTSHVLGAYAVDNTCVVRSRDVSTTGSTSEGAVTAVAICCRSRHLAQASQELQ

CC(C)CCCCCCC(=O)O [8-methylnonanoic acid]
potency for reducing triglyceride compared with other fatty acid [1]: more potent medium-chain fatty acids for reducing triglyceride than palmitic acid

CCCCCCCCCC(=O)OCC(COC(=O)CCCCCCCCC)OC(=O)CCCCCCCCC [tricaprin/trisdecanoin]
TG deposit atherosclerosis in the coronary artery (color-coded CT images) ([2]; Example 1 patient, person with ATGL deficiency, 6 to 9 g/day after meals for 50 days, left anterior descending coronary artery): regression of TG deposit atherosclerosis in the coronary artery | stenosis of the vascular lumen ([2]; Example 2 patient, refractory angina, diabetes, 1.5 g/day for 4 years, segment 7 to 9 cm from coronary ostium, before diet 90% to 75% diffuse stenosis): about 25% | TG deposit atherosclerosis in the coronary artery [2, 8]: regression of TG deposit atherosclerosis in the coronary artery | characteristic pattern of TG deposit atherosclerosis (lipid deposition protruding from adventitial toward medial side) [2, 8]: diminished or disappeared | diameter of the vascular lumen through which the blood flowed [2, 8]: marked enlargement | TG deposit atherosclerosis in the coronary artery [2, 9]: regression of TG deposit atherosclerosis in the coronary artery | diameter of the vascular lumen through which the blood flowed [2, 9]: marked enlargement | Vascular lumen ([3]; % increase vs before diet, Example 2 patient, 1.5 g/day for 4 years, segment designated in FIG. 2, 2.2 cm, CT values 215 to 700 HU): 260% increase | Vascular lumen ([3]; % increase, Example 3 patient, 4.5 g/day for 3 months, not stented segment Circumflex 7.2 cm): 17% increase | Vascular lumen ([3]; % increase, Example 3 patient, 4.5 g/day for 3 months, not stented segment LAD 3.7 cm): 48% increase | Vascular lumen ([3]; % increase, Example 3 patient, 4.5 g/day for 3 months, not stented segment RCA 3.4 cm): 24% increase | Lipid accumulation ([3]; % reduction vs before diet, Example 2 patient, 1.5 g/day for 4 years, segment designated in FIG. 2, 2.2 cm, CT values -25 to 40 HU): 27% reduction | Lipid accumulation ([3]; % reduction, Example 3 patient, 4.5 g/day for 3 months, not stented segment Circumflex 7.2 cm): 50% reduction | Lipid accumulation ([3]; % reduction, Example 3 patient, 4.5 g/day for 3 months, not stented segment LAD 3.7 cm): 53% reduction | Lipid accumulation ([3]; % reduction, Example 3 patient, 4.5 g/day for 3 months, not stented segment RCA 3.4 cm): 14% reduction | blood flow to the peripheral coronary arteries ([4]; 4.5 g/day for 3 months): clearly improved | blood flow in the coronary arteries as a whole ([4]; oral 4.5 g/day for 3 months): improvement in coronary blood flow; also recorded: improvement in the blood flow | LDL cholesterol, serum ([5]; Mean ± SD over 3 months, Example 3 patient, 4.5 g/day, on statin, before treatment 52 ± 2.9): 54 ± 1.8 mg/dL | HDL cholesterol, serum ([5]; Mean ± SD over 3 months, Example 3 patient, 4.5 g/day, before treatment 35 ± 1.0): 38 ± 1.0 mg/dL | TG (triglyceride), serum ([5]; Mean ± SD over 3 months, Example 3 patient, 4.5 g/day, before treatment 78 ± 2.1): 75 ± 11.3 mg/dL | HDL cholesterol, serum ([5]; Mean ± SD over 4 years, Example 2 patient, 1.5 g/day, before treatment 34.5 ± 0.5): 33 ± 4.0 mg/dL | LDL cholesterol, serum ([5]; Mean ± SD over 4 years, Example 2 patient, 1.5 g/day, before treatment 95 ± 9.0): 91 ± 13.6 mg/dL | TG (triglyceride), serum ([5]; Mean ± SD over 4 years, Example 2 patient, 1.5 g/day, before treatment 308 ± 7.5): 334 ± 118.2 mg/dL | effect on the serum lipid levels [5, 8]: no effect on the serum lipid levels | effect on the serum lipid levels [5, 9]: no effect on the serum lipid levels | recurrent cerebral infarction [6]: free from recurrent cerebral infarction

CCCCCCCCCC(=O)O [capric acid]
intracellular triglyceride content relative to control cells (100%) ([1]; Example 4-1, fatty acid added at 50 μM and 500 μM, FIG. 6): reduction in intracellular triglyceride content | potency for reducing triglyceride compared with other fatty acid [1]: more potent medium-chain fatty acids for reducing triglyceride than palmitic acid

B1: evolocumab: monoclonal antibody against PCSK9 (antibody, chains of the INN, looked up, V domains shown)
VH: EVQLVQSGAEVKKPGASVKVSCKASGYTLTSYGISWVRQAPGQGLEWMGWVSFYNGNTNYAQKLQGRGTMTTDPSTSTAYMELRSLRSDDTAVYYCARGYGMDVWGQGTTVTVSS
VL: ESALTQPASVSGSPGQSITISCTGTSSDVGGYNSVSWYQQHPGKAPKLMIYEVSNRPSGVSNRFSGSKSGNTASLTISGLQAEDEADYYCNSYTSTSMVFGGGTKLTVL
LDL cholesterol level at week 76 ([7]; 92.6 mg/dL before the start of the trial): 36.6 mg/dL | LDL cholesterol level at week 76 as % of the level before the start of the trial [7]: about 40% | percent atheroma volume, reduction at week 76 [7]: 0.95%
